Experimental data taken from ChEMBL document CHEMBL5034001 (J Med Chem, 2021).
Active and inactive are the calls of the source. The rule behind the calls is not given here.

How the values were obtained:
[1] = target: Serine/threonine-protein kinase PLK4 (Homo sapiens) (UniProt O00444); assay: Binding affinity to wild-type human partial length PLK4 (M1 to S273 residues) expressed in mammalian expression system assessed as residual binding level at 100 nM by Kinomescan method relative to control
Calu-1 [2] = assay: Induction of G1 cell cycle arrest in human Calu-1 cells at 100 nM after 24 to 48 hrs; type: functional, cell-based; settings: time 24-48 hrs
[3] = target: Protein-tyrosine kinase 2-beta (Homo sapiens) (UniProt Q14289); assay: Induction of PYK2 degradation in human SR cells at 1 nM after 16 hrs by Western blot analysis; type: cell-based
[4] = target: Serine/threonine-protein kinase RIO1 (Homo sapiens) (UniProt Q9BRS2); assay: Binding affinity to wild-type human full length RIOK1 (M1 to K568 residues) expressed in bacterial expression system assessed as residual binding level at 100 nM by Kinomescan method relative to control
[5] = system: ALK tyrosine kinase receptor (Homo sapiens), Q9UM73 [L1196M]; assay: Binding affinity to wild-type human partial length ALK L1196M mutant (I1088 to E1409 residues) expressed in mammalian expression system assessed as residual binding level at 100 nM by Kinomescan method relative to control
[6] = system: Mast/stem cell growth factor receptor Kit (Homo sapiens), P10721 [D816V]; assay: Binding affinity to human partial length KIT D816V mutant (I571 to D952 residues) expressed in bacterial expression system assessed as residual binding level at 100 nM by Kinomescan method relative to control
[7] = system: Receptor-type tyrosine-protein kinase FLT3 (Homo sapiens), P36888 [K663Q]; assay: Binding affinity to human partial length FLT3 K663Q mutant (V592 to Y969 residues) expressed in bacterial expression system assessed as residual binding level at 100 nM by Kinomescan method relative to control
MDA-MB-231 = assay: Inhibition of cell migration in human MDA-MB-231 cells assessed as wound confluence ratio at 10 nM after 48 hrs by wound healing assay; type: functional
[8] = target: T1, ALK tyrosine kinase receptor (Homo sapiens, UniProt Q9UM73); assay: Induction of ALK degradation in human SR cells at 100 nM incubated with compound for 24 hrs followed by compound washout and measured upto 72 hrs by Western blot analysis; type: cell-based
[9] = target: Protein-tyrosine kinase 2-beta (Homo sapiens) (UniProt Q14289); assay: Induction of PYK2 degradation in human MDA-MB-231 cells at 10 nM after 1 to 2 hrs by Western blot analysis; type: cell-based; settings: time 1-2 hrs
[10] = target: T1, ALK tyrosine kinase receptor; assay: Induction of ALK degradation in human SR cells at 100 nM pretreated with proteosome inhibitor MLN4924 for 4 hrs followed by compound addition and measured after 16 hrs by Western blot analysis; type: cell-based
[11] = target: Focal adhesion kinase 1 (Homo sapiens) (UniProt Q05397); assay: Induction of FAK degradation in human MDA-MB-231 cells at 10 nM after 1 to 2 hrs by Western blot analysis; type: cell-based; settings: time 1-2 hrs
[12] = Metabolic stability in Sprague-Dawley rat liver microsomes preincubated for 10 mins followed by NADPH regenerating system addition and measured after 10 mins by LC-MS/MS analysis; type: ADME, Microsome; settings: time 20 min, read-out: Stability
[13] = target: Serine/threonine-protein kinase ULK1 (Homo sapiens) (UniProt O75385); assay: Binding affinity to wild-type human partial length ULK1 (M1 to T309 residues) expressed in mammalian expression system assessed as residual binding level at 100 nM by Kinomescan method relative to control
[14] = target: Serine/threonine-protein kinase Chk2 (Homo sapiens) (UniProt O96017); assay: Binding affinity to wild-type human partial length CHEK2 (S253 to E574 residues) expressed in bacterial expression system assessed as residual binding level at 100 nM by Kinomescan method relative to control
[15] = target: T1, ALK tyrosine kinase receptor; assay: Inhibition of ALK downstream signalling in human SR cells assessed as reduction in ratio of pALK at 0.1 to 50 nM by Western blot analysis; type: cell-based; settings: dose 0.1-50 nM
[16] = Metabolic stability in CD-1 mouse liver microsomes preincubated for 10 mins followed by NADPH regenerating system addition and measured after 10 mins by LC-MS/MS analysis; type: ADME, Microsome; settings: time 20 min, read-out: Stability
[17] = target: Focal adhesion kinase 1 (Homo sapiens) (UniProt Q05397); assay: Induction of FAK degradation in human NCI-H2228 cells at 1 nM after 16 hrs by Western blot analysis; type: cell-based
[18] = target: T1, ALK tyrosine kinase receptor; assay: Induction of ALK degradation in human SR cells at 10 uM after 16 hrs by Western blot analysis; type: cell-based
[19] = target: Cyclin-G-associated kinase (Homo sapiens) (UniProt O14976); assay: Binding affinity to wild-type human partial length GAK (G13 to Y338 residues) expressed in bacterial expression system assessed as residual binding level at 100 nM by Kinomescan method relative to control
[20] = system: Epidermal growth factor receptor (Homo sapiens), P00533 [UNDEFINED MUTATION]; assay: Binding affinity to human partial length EGFR L747-E749del/A750P mutant expressed in bacterial expression system assessed as residual binding level at 100 nM by Kinomescan method relative to control
[21] = target: NPM/ALK (Nucleophosmin/ALK tyrosine kinase receptor) (Homo sapiens) (UniProt Q9UM73+P06748); assay: Induction of NPM-ALK degradation in human SR cells at 0.1 to 50 nM by Western blot analysis; type: cell-based; settings: dose 0.1-50 nM
[22] = target: Focal adhesion kinase 1 (Homo sapiens) (UniProt Q05397); assay: Induction of FAK degradation in human MDA-MB-231 cells at 10 nM treated for 16 hrs followed by compound washout and measured after 48 hrs by Western blot analysis; type: cell-based
HEK-293T = assay: Antiproliferative activity against human 293T cells overexpressing ALK G1202R mutant assessed as cell growth inhibition after 72 hrs; type: functional, cell-based
Calu-1 [23] = assay: Down regulation of FAK in human Calu-1 cells at 1 to 1000 nM after 16 hrs by Western blot analysis; type: functional, cell-based; settings: dose 1-1000 nM
Calu-1 [24] = assay: Induction of apoptosis in human Calu-1 cells at 100 nM after 72 hrs; type: functional, cell-based
[25] = system: Receptor-type tyrosine-protein kinase FLT3 (Homo sapiens), P36888 [D835V]; assay: Binding affinity to human partial length FLT3 D835V mutant (V592 to Y969 residues) expressed in bacterial expression system assessed as residual binding level at 100 nM by Kinomescan method relative to control
[26] = target: Protein-tyrosine kinase 2-beta (Homo sapiens) (UniProt Q14289); assay: Induction of PYK2 degradation in human MDA-MB-231 cells at 10 nM treated for 16 hrs followed by compound washout and measured after 48 hrs by Western blot analysis; type: cell-based
[27] = target: ALK tyrosine kinase receptor (Homo sapiens, UniProt Q9UM73, G1202R); assay: Binding affinity to ALK G1202R mutant (unknown origin)
Calu-1 [28] = assay: Down regulation of RSK1 in human Calu-1 cells at 1 to 1000 nM after 16 hrs by Western blot analysis; type: functional, cell-based; settings: dose 1-1000 nM
[29] = system: Receptor-type tyrosine-protein kinase FLT3 (Homo sapiens), P36888 [N841I]; assay: Binding affinity to human partial length FLT3 N841I mutant (V592 to Y969 residues) expressed in bacterial expression system assessed as residual binding level at 100 nM by Kinomescan method relative to control

Focal adhesion kinase 1 (Homo sapiens), sequence (Q05397 2-1052 limits assumed): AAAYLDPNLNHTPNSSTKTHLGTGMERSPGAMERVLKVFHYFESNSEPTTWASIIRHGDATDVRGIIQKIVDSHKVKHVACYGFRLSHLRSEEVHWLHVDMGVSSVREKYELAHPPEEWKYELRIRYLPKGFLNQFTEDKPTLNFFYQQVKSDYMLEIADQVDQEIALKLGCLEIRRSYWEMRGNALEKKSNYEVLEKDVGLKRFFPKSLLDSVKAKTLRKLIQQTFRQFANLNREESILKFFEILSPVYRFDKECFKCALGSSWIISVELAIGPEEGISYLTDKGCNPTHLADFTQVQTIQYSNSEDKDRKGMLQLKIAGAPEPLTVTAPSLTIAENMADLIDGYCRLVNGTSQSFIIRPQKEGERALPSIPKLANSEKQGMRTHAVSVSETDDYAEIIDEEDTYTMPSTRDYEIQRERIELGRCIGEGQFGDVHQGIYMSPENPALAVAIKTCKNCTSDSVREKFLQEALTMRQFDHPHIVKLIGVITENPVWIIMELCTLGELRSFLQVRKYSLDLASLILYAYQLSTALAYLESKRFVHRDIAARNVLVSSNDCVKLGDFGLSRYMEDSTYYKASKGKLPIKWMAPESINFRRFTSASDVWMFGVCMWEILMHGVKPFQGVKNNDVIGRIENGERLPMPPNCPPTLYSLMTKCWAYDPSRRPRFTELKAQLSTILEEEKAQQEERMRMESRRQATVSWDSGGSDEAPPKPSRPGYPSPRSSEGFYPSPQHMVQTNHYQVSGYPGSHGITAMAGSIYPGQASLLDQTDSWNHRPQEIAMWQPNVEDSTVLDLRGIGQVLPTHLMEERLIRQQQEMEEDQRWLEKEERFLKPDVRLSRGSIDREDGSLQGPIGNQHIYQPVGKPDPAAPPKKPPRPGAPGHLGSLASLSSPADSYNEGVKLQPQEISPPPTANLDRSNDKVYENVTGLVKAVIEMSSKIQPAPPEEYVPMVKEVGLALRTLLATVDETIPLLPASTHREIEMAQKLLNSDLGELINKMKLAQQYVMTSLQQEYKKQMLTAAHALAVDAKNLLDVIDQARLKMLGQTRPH
Protein-tyrosine kinase 2-beta (Homo sapiens), sequence (Q14289 whole entry, looked up, the tested form may be a part): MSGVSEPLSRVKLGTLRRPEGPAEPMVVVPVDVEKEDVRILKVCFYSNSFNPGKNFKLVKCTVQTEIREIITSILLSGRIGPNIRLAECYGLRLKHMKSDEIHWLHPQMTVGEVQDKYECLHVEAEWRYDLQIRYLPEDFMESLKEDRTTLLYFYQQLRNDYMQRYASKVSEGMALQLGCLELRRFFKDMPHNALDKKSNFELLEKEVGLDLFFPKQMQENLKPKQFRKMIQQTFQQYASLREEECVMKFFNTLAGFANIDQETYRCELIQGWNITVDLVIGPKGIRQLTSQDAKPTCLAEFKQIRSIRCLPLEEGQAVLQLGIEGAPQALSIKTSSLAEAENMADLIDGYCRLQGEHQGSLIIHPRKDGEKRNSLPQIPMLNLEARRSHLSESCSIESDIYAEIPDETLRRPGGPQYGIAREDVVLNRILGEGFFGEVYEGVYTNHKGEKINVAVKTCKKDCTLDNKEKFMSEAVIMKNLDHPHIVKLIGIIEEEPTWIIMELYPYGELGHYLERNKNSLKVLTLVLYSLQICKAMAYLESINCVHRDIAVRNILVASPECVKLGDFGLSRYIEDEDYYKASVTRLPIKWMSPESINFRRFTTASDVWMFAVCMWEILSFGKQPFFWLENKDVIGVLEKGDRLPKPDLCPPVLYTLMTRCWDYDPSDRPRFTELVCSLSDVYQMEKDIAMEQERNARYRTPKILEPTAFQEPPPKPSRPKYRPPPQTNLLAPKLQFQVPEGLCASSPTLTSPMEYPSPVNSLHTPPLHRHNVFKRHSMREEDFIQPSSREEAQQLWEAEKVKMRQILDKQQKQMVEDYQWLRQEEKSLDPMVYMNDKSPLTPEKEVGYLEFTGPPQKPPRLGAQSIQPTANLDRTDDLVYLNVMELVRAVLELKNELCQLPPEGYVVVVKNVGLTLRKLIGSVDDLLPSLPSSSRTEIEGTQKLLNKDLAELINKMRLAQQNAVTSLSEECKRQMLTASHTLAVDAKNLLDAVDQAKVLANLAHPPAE
T1 sequence (Q9UM73 19-1620 limits assumed): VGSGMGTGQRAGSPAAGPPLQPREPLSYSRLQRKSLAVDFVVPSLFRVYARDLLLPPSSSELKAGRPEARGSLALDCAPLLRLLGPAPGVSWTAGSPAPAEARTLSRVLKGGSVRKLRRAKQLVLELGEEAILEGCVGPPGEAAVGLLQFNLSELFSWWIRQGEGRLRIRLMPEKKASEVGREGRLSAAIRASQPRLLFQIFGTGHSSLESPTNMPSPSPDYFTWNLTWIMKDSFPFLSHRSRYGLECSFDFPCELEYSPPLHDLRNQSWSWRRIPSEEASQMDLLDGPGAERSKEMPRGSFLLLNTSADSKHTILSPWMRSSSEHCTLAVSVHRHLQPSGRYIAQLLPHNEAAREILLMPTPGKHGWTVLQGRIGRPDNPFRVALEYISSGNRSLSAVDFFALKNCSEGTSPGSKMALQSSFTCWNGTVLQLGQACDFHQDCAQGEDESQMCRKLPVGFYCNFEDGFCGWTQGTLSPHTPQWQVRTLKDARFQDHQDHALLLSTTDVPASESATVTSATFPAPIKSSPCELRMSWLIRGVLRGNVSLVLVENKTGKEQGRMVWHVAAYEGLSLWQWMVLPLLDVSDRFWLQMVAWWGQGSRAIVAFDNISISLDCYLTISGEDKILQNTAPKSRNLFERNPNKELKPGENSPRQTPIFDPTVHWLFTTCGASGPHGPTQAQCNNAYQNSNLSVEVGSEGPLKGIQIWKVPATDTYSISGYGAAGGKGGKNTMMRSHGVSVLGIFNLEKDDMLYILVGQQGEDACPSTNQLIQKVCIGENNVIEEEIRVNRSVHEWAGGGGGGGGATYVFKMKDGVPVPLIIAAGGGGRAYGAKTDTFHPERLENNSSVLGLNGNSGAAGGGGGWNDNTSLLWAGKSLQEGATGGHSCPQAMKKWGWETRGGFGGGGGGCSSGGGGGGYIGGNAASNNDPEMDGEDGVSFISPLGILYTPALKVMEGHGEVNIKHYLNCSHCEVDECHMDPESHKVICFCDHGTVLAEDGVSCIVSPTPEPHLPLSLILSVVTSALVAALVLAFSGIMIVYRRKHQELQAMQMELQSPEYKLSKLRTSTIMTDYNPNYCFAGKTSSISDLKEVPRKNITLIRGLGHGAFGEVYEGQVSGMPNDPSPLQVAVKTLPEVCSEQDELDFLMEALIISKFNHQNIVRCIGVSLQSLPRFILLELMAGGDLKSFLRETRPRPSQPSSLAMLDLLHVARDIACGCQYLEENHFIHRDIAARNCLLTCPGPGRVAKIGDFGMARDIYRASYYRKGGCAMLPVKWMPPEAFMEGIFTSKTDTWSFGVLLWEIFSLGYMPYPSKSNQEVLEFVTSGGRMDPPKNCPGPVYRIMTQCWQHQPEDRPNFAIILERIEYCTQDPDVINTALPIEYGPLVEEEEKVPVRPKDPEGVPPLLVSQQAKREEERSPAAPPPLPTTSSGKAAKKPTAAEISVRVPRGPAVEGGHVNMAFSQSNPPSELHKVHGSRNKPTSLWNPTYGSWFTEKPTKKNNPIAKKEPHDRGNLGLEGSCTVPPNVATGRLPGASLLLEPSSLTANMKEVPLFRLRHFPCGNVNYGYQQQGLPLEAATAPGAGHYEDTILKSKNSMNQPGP
Epidermal growth factor receptor (Homo sapiens), P00533 [UNDEFINED MUTATION], sequence (P00533 whole entry, looked up, stated change not applied): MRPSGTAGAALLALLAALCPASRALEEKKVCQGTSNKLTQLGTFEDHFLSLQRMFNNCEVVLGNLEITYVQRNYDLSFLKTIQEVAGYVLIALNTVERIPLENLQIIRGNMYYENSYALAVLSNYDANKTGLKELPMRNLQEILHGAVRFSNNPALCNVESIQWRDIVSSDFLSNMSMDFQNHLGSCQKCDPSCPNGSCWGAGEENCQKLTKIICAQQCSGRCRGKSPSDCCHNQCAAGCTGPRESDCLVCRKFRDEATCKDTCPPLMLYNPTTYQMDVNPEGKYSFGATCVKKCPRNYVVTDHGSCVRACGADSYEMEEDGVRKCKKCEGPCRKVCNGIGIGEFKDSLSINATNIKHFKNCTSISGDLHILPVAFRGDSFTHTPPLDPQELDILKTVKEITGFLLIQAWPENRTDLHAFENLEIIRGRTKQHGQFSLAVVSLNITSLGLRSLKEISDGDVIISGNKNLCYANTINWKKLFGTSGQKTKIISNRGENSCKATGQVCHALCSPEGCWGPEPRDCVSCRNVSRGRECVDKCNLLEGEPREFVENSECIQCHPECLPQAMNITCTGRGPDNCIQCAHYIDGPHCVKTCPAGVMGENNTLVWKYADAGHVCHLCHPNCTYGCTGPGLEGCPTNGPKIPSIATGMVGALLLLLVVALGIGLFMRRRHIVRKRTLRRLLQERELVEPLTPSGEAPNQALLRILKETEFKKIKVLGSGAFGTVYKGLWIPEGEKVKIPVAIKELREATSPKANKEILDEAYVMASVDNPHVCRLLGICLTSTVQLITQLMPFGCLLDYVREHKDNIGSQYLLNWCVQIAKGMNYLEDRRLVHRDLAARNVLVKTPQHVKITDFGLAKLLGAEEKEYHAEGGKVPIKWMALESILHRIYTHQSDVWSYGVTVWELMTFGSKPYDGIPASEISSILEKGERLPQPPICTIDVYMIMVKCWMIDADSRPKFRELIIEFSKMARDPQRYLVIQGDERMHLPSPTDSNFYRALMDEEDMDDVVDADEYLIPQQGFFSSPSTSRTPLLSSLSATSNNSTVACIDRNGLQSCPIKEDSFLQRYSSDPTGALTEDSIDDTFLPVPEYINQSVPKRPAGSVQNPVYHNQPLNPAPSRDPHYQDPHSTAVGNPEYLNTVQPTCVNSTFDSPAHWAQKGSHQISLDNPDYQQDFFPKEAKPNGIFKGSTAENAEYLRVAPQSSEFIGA
ALK tyrosine kinase receptor (Homo sapiens, UniProt Q9UM73, G1202R), sequence (Q9UM73 19-1620 G1202R limits assumed): as the sequence (Q9UM73 19-1620 limits assumed) above, with G1184R counted along it

COc1cc(N2CCC(N3CCN(C(=O)CNc4cccc5c4C(=O)N(C4CCC(=O)NC4=O)C5=O)CC3)CC2)ccc1Nc1ncc(Cl)c(Nc2ccccc2P(C)(C)=O)n1 (stereo unspecified)
Activity [1]: 8.3%
Activity (Calu-1 [2]): Active
Activity [3]: Active
Activity [4]: 1.6%
Activity [5]: 6.5%
Activity [6]: 8.1%
Activity [7]: 4.3%
inhibition at 0.01 µM (MDA-MB-231): 48%
Activity [8]: Active
Activity [9]: Active
Activity [10]: inactive
Activity [11]: Active
microsomal CLint [12]: < 9.6 µL/min/mg
Activity [13]: 1.6%
Activity [14]: 0%
Ratio [15]: 0.18
microsomal CLint [16]: 16.7 µL/min/mg
Activity [17]: Active
Activity [18]: Active
Activity [19]: 1.4%
Activity [20]: 6.9%
Activity [21]: Active
Activity [22]: inactive
IC50 (HEK-293T): 21 nM
Activity (Calu-1 [23]): Active
Activity (Calu-1 [24]): inactive
Activity [25]: 0%
Activity [26]: inactive
IC50 [27]: 6.6 nM
Activity (Calu-1 [28]): Active
Activity [29]: 4%
